Data as given in US20180042891A1, “Cancer Cell Apoptosis” (e-Therapeutics plc, priority 2009, published 2018).

Assays:
[1] = system: G-361 melanoma cells; experiment: Caspase 3/7 apoptosis and CellTiter-Blue cell viability assay, 24 hour; type: cell-based, human; conditions: G-361, 24 hours incubation
Procedure: (§1) Assay was performed at a 24 hour timepoint on 3 melanoma lines (A375, G-361, WM266-4) 2 breast cancer lines (MCF7, MDA-MB-231), fibroblast (46BR.1G1), colon cancer (HCT116), prostate cancer (PC-3), glioblastoma (U373) and non-small cell lung cancer (NSCLC) (DMS-114)
(§2) The above cell lines were maintained in RPMI 1640 culture medium (Sigma, UK) containing 10% (v/v) heat inactivated foetal bovine serum (Sigma, UK) and 2 mM […] at 37° C. in 5% humidified CO2. Cells were harvested, washed, re-suspended into growth medium and counted (Beckman-Coulter Vi-CELL XR). Cells were plated onto the middle 240 wells of 384 tissue culture plates at 1.6×lO^5 to 2.4×lO^5 cells/ml in 12.5 μl/well aliquots. 50 μl of growth media was aliquoted into the outer wells. 2 plates were prepared per cell line. Plates were incubated overnight at 37° C., in 5% humidified CO2.
(§3) Dexanabinol was prepared in growth medium at 2 times the final assay concentration at 125, 31.3, 7.81, 2.00, 0.49, 0.12, 0.031 and O.OO8 μM (DMSO concentration was kept constant across the dilution range at 0.5%).
(§4) Cisplatin was used as a positive control. The final assays concentrations were 10, 2.5, 0.63, 0.156, 0.039, 0.010, 0.002 and 0.0006 μg/ml. […] 12.5 μl of growth media was added to the media control wells. The plates were incubated for 24 hours at 37° C., in 5% humidified CO2.
(§5) Caspase 3/7 levels were assessed by Apo-ONE® Homogeneous Caspase-3/7 assay kit. Fluorescence was measured using a FlexStation® II^384 plate reader at 1, 2, 3 and 4 hours after addition of the caspase substrate. The 4 hour readings were used for analysis.
(§6) The cell viability assay was performed in parallel on the same plate for each line using CellTiter-Blue® (Promega) reagent. Briefly, 25 μl of CellTiter-Blue® (Promega) reagent was added to each well. The plates were shaken for 1 minute at 500 rpm and then incubated at 37° C., 5% CO2 for 4 hours.

[2] = system: PC-3 prostate cancer cells; experiment: as above; type: cell-based, human; conditions: PC-3, 24 hours incubation
Procedure: as §1, §2, §3, §4, §5, §6

[3] = system: MDA-MB-231 breast cancer cells; experiment: as above; type: cell-based, human; conditions: MDA-MB-231, 24 hours incubation
Procedure: as §1, §2, §3, §4, §5, §6

[4] = system: 46Br.1G1 fibroblast cells; experiment: as above; type: cell-based, human; conditions: 46Br.1G1, 24 hours incubation
Procedure: as §1, §2, §3, §4, §5, §6

[5] = system: WM266-4 melanoma cells; experiment: as above; type: cell-based, human; conditions: WM266-4, 24 hours incubation
Procedure: as §1, §2, §3, §4, §5, §6

[6] = system: DMS-114 NSCLC cells; experiment: as above; type: cell-based; conditions: DMS-114, 24 hours incubation
Procedure: as §1, §2, §3, §4, §5, §6

[7] = system: MCF7 breast cancer cells; experiment: as above; type: cell-based; conditions: MCF7, 24 hours incubation
Procedure: as §1, §2, §3, §4, §5, §6

[8] = system: A375 melanoma cells; experiment: as above; type: cell-based; conditions: A375, 24 hours incubation
Procedure: as §1, §2, §3, §4, §5, §6

[9] = system: HCT116 colon cancer cells; experiment: as above; type: cell-based; conditions: HCT116, 24 hours incubation
Procedure: as §1, §2, §3, §4, §5, §6

[10] = system: U373 glioblastoma cells; experiment: as above; type: cell-based; conditions: U373, 24 hours incubation
Procedure: as §1, §2, §3, §4, §5, §6

[11] = system: Panc-1 cells; set-up: dose or concentration left out as unconfirmed; conditions: at this same concentration; cited from earlier work
[12] = molecular target: CDK5 (Homo sapiens, UniProt Q00535); experiment: Direct assay against CDK5; type: biochemical; conditions: when directly assayed
CDK5, sequence (Q00535 whole entry, species assumed): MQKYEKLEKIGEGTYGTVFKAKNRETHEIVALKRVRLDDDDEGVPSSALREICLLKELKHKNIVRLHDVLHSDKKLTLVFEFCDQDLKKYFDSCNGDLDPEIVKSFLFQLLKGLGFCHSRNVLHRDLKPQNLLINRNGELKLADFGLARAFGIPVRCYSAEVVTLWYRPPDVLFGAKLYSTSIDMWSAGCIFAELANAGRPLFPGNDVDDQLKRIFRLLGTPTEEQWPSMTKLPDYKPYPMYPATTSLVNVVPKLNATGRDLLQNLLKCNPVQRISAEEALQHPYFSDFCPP
CDK5, sequence (Q15078 99-307 partner limits assumed, species assumed): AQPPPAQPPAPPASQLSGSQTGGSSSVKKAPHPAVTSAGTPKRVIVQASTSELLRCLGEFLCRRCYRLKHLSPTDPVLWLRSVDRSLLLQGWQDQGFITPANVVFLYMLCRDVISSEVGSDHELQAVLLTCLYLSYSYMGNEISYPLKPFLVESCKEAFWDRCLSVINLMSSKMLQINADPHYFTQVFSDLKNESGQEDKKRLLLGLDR

[13] = molecular target: CDK2 (Homo sapiens, UniProt P24941); experiment: Direct assay against CDK2; type: biochemical; conditions: when directly assayed
[14] = system: panel of cancer cell lines and a human fibroblast line; experiment: CellTiter-Blue cell viability (cytotoxicity), whole panel of cell lines; type: cell-based
Procedure: as §1, §2, §3
(§7) The final assays concentrations were 10, 2.5, 0.63, 0.156, 0.039, 0.010, 0.002 and 0.0006 μg/ml. […] 12.5 μl of growth media was added to the media control wells. The plates were incubated for 24 hours at 37° C., in 5% humidified CO2.
as §6

[15] = as above; type: cell-based; conditions: human; at the highest concentration; read-out: loss in cell viability
Procedure: as §1, §2, §3, §7, §6

[16] = system: panel of cancer cell lines and a human fibroblast line; experiment: Apo-ONE Caspase-3/7 apoptosis assay, whole panel of cell lines; type: cell-based
Procedure: as §1, §2, §3
Cisplatin was used as a positive control. […]
as §5

[17] = system: melanoma cell lines (A375, Malme-3M, UACC62); conditions: previous studies, WO '700; read-out: decreased growth, IC50 value; cited from earlier work
[18] = system: Aspc-1; set-up: dose or concentration left out as unconfirmed; conditions: cited from earlier work

N.N.[Cl][Pt][Cl] [Cisplatin, reference compound]
IC50 [1]: 18 µM | Rank: apoptosis induction and decrease in proliferation [1]: ** (moderate apoptosis induction and decrease in proliferation (35-70%)) | IC50 [2]: ~58 µM | Rank: apoptosis induction and decrease in proliferation [2]: * (weak apoptosis induction and decrease in proliferation (<35%)) | IC50 [3]: > 33 µM | Rank: apoptosis induction and decrease in proliferation [3]: * (weak apoptosis induction and decrease in proliferation (<35%)) | IC50 [4]: 21.5 µM | Rank: apoptosis induction and decrease in proliferation [4]: ** (moderate apoptosis induction and decrease in proliferation (35-70%)) | IC50 [5]: 62 µM | Rank: apoptosis induction and decrease in proliferation [5]: * (weak apoptosis induction and decrease in proliferation (<35%)) | IC50 [6]: ~40.2 µM | Rank: apoptosis induction and decrease in proliferation [6]: * (weak apoptosis induction and decrease in proliferation (<35%)) | IC50 [7]: 40.6 µM | Rank: apoptosis induction and decrease in proliferation [7]: ** (moderate apoptosis induction and decrease in proliferation (35-70%)) | IC50 [8]: 21.8 µM | Rank: apoptosis induction and decrease in proliferation [8]: ** (moderate apoptosis induction and decrease in proliferation (35-70%)) | IC50 [9]: 29.5 µM | Rank: apoptosis induction and decrease in proliferation [9]: ** (moderate apoptosis induction and decrease in proliferation (35-70%)) | IC50 [10]: > 33 µM | Rank: apoptosis induction and decrease in proliferation [10]: * (weak apoptosis induction and decrease in proliferation (<35%))

CCCCCCC(C)(C)c1cc(O)c2c(c1)OC(C)(C)[C@H]1CC=C(CO)C[C@H]21 [Dexanabinol, 1, 1 dimethyl heptyl-(3S,4S)-7-hydroxy-Δ^6-tetrahydrocannabinol]
Rank: apoptosis induction and decrease in proliferation [1]: *** (good apoptosis induction and decrease in proliferation (>70%)) | IC50 ([1]; Homo sapiens): 11 µM | IC50 ([2]; Homo sapiens): 19.9 µM | Rank: apoptosis induction and decrease in proliferation [2]: *** (good apoptosis induction and decrease in proliferation (>70%)) | IC50 ([3]; Homo sapiens): 10 to 50 µM | Rank: apoptosis induction and decrease in proliferation [3]: ** (moderate apoptosis induction and decrease in proliferation (35-70%)) | Rank: apoptosis induction and decrease in proliferation [4]: *** (good apoptosis induction and decrease in proliferation (>70%)) | IC50 ([4]; Homo sapiens, Fibroblast): 23.1 µM | IC50 ([5]; Homo sapiens, WM 266-4): 20.9 µM | Rank: apoptosis induction and decrease in proliferation [5]: ** (moderate apoptosis induction and decrease in proliferation (35-70%)) | Panc-1 cells proliferation inhibited [11]: 26% | direct activity against CDK5 [12]: no significant direct activity | direct activity against CDK2 [13]: no significant direct activity | IC50 ([14]; Homo sapiens, Fibroblast, read-out: cytotoxic response, IC50 values): 10 to 25 µM | concentration giving dose-dependent decrease in cell viability ([14]; all cell lines): > 10^−5 M | cytotoxicity at 24 h, 62.5 µM [15]: 100% | concentrations at which pro-apoptotic effect and effect on cell number were shown [16]: ≥ 10 µM | concentration of peak response in apoptosis ([16]; dropped at the highest concentration of 10 μM): 2.5 µM | IC50 [17]: 10 to 20 µM | Rank: apoptosis induction and decrease in proliferation [6]: * (weak apoptosis induction and decrease in proliferation (<35%)) | IC50 ([6]; Homo sapiens): 10 to 50 µM | IC50 ([7]; Homo sapiens): 16.2 µM | Rank: apoptosis induction and decrease in proliferation [7]: *** (good apoptosis induction and decrease in proliferation (>70%)) | Rank: apoptosis induction and decrease in proliferation [8]: ** (moderate apoptosis induction and decrease in proliferation (35-70%)) | IC50 ([8]; Homo sapiens, A-375): 19.2 µM | Rank: apoptosis induction and decrease in proliferation [9]: *** (good apoptosis induction and decrease in proliferation (>70%)) | IC50 ([9]; Homo sapiens, HCT-116): 22.3 µM | IC50 ([10]; Homo sapiens, U373 MG): 10 to 50 µM | Rank: apoptosis induction and decrease in proliferation [10]: * (weak apoptosis induction and decrease in proliferation (<35%)) | Aspc-1 proliferation [18]: not affected
